In brackets after ≈: the same amount, converted by molar mass. Read-outs that look alike come from different tables or passages of the source.
How the values were obtained:
[1] = tested on: VE 149 (VanB); assay: MIC, VanB-type VRE strain VE 149; type: cell-based, Enterococcus; details: Enterococcus; VE 149, VanB; read-out: MIC
Protocol: (§1) The minimum inhibitory concentration (MIC) was determined using the broth microdilution method according to the antimicrobial susceptibility testing standards of the clinical and laboratory standards institute ([Clinical and Laboratory Standards Institute [CLSI], 2012]). Ultrapure water and non-inoculated broth were used as controls. In one case, a final concentration of 10 μM vancomycin was included with the vancomycin analog or control antibiotic.

[2] = tested on: human cervix carcinoma (HeLa) cells; assay: Cytostatic activity, HeLa cell proliferation; type: cell-based; details: Homo sapiens, HeLa, 96 h; mean ± SD of three experiments; highest concentration tested 250 µM; 4 days; read-out: Toxicity (IC50) HeLa
How it was run: (§2)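 Suspensions (300,000–500,000 cells/mL) combined with equal volumes of diluted compound; 37°C; L1210 2 d / CEM 3 d / HeLa 4 d; counted by Coulter counter; IC50 vs untreated wells.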

[3] = tested on: E. faecalis VRE 37; assay: MIC, broth microdilution, vancomycin-resistant E. faecalis VRE 37 (VanA); type: cell-based, Enterococcus faecalis
How it was run: (§3)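 Serial dilutions in broth, set up per CLSI guidance, gave the MIC. Where noted, test analogues or comparator antibiotics were combined with vancomycin at 10 μM final. Controls: ultrapure water, broth without inoculum.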

[4] = tested on: E. faecalis VRE 53; assay: MIC, broth microdilution, vancomycin-resistant E. faecalis VRE 53 (VanA); type: cell-based, Enterococcus faecalis
How it was run: as §3

[5] = tested on: E. faecalis VSE 1; assay: MIC, broth microdilution, vancomycin-sensitive E. faecalis (VSE 1); type: cell-based, Enterococcus faecalis
How it was run: as §3

[6] = tested on: human T-lymphocyte (CEM) cells; assay: Cytostatic activity, CEM cell proliferation; type: cell-based; details: Homo sapiens, CCRF-CEM, 72 h; mean ± SD of three experiments; highest concentration tested 250 µM; 3 days; read-out: Toxicity (IC50) CEM
How it was run: as §2

[7] = tested on: MRSA KS1; assay: MIC, broth microdilution, MRSA KS1; type: cell-based, Staphylococcus aureus
How it was run: as §3

[8] = tested on: S. aureus VISA/HIP5827; assay: MIC, broth microdilution, vancomycin-intermediate S. aureus VISA HIP5827; type: cell-based, Staphylococcus aureus
How it was run: as §3

[9] = tested on: VE 157 (VanB); assay: MIC, VanB-type VRE strain VE 157; type: cell-based, Enterococcus; details: Enterococcus; VE 157, VanB; read-out: MIC
Protocol: as §1

[10] = tested on: MRSA KS2; assay: MIC, broth microdilution, MRSA KS2; type: cell-based, Staphylococcus aureus
How it was run: as §3

[11] = tested on: S. aureus VRSA; assay: MIC, broth microdilution, vancomycin-resistant S. aureus (VRSA); type: cell-based, Staphylococcus aureus
How it was run: as §3

[12] = tested on: VE 152 (VanB); assay: MIC, VanB-type VRE strain VE 152; type: cell-based, Enterococcus; details: Enterococcus; VE 152, VanB; read-out: MIC
Protocol: as §1

[13] = tested on: Murine leukemia (L1210) cells; assay: Cytostatic activity, L1210 cell proliferation; type: cell-based; details: Mus musculus, L1210, 48 h; mean ± SD of three experiments; highest concentration tested 250 µM; 2 days; read-out: Toxicity (IC50) L1210
How it was run: as §2

[14] = tested on: VE 148 (VanB); assay: MIC, VanB-type VRE strain VE 148; type: cell-based, Enterococcus; details: Enterococcus; VE 148, VanB; read-out: MIC
Protocol: as §1

[15] = tested on: E. faecalis VRE 6; assay: MIC, broth microdilution, vancomycin-resistant E. faecalis VRE 6 (VanA); type: cell-based, Enterococcus faecalis
How it was run: as §3

[16] = tested on: MRSA; assay: Minimum bactericidal concentration against MRSA; type: cell-based, Staphylococcus aureus
Protocol: Plates were incubated overnight at 37°C and colony growth was inspected.

[17] = tested on: E. faecalis VRE 29; assay: MIC, broth microdilution, vancomycin-resistant E. faecalis VRE 29 (VanA); type: cell-based, Enterococcus faecalis
How it was run: as §3

[18] = tested on: MRSA KS6; assay: MIC, broth microdilution, MRSA KS6; type: cell-based, Staphylococcus aureus
How it was run: as §3

[19] = tested on: L1210, CEM and HeLa cell lines; assay: Cytostatic activity, average or summary over L1210, CEM and HeLa; type: cell-based
How it was run: as §2

[20] = tested on: 33 clinical VRE isolates; assay: MIC against a set of 33 clinical VRE isolates (range, MIC50, TI); type: cell-based, Enterococcus faecalis
Protocol: as §1

[21] = tested on: S. aureus VSSA (ATCC 6538); assay: MIC, broth microdilution, vancomycin-sensitive S. aureus (VSSA/MSSA, ATCC 6538); type: cell-based, Staphylococcus aureus
How it was run: as §3

[22] = tested on: 24 clinical MRSA isolates; assay: MIC against a set of 24 clinical MRSA isolates (range, MIC50, TI); type: cell-based, Staphylococcus aureus
Protocol: as §1

[23] = tested on: MRSA KS89; assay: MIC, broth microdilution, MRSA KS89; type: cell-based, Staphylococcus aureus
How it was run: as §3

[24] = tested on: MRSA; assay: Time-kill curves, MRSA at 4x MIC; type: cell-based, Staphylococcus aureus; details: 1-24 h
Protocol: Time-kill curves were determined based on the CLSI guidelines ([Clinical and Laboratory Standards Institute [CLSI], 1999]). Single colonies grown overnight at 37°C were resuspended in Ca^2+-adjusted (0.05 mg/mL) Mueller Hinton broth up to an optical density (625 nm) of 0.08–00.10 (corresponding to the 0.5 McFarland standard), followed by a 10-fold dilution in the same broth. Subsequently, 0.2 mL inoculum was added to 1.7 mL Ca^2+-adjusted (0.05 mg/mL) Mueller Hinton broth, followed by addition of the antibacterial compound (0.1 mL). The final concentration of the antibacterial compound corresponded to the 4x MIC value for that compound. For the antibiotic-free control, the compound was replaced by an equal volume of ultrapure water. The final inoculum concentration was approximately 10^6 CFU/mL. The cultures were continuously shaken at 37°C. After 1, 2, 4, 6, 8, and 24 h, a 0.1 mL aliquot was removed, serially diluted in cold 0.9% w/v NaCl and plated on BHI (VRE) and LB (MRSA) agar plates. Plates were incubated overnight at 37°C and colonies were counted.

[25] = tested on: VE 150 (VanB); assay: MIC, VanB-type VRE strain VE 150; type: cell-based, Enterococcus; details: Enterococcus; VE 150, VanB; read-out: MIC
Protocol: as §1

[26] = tested on: VE 82 (VanC1); assay: MIC, VanC1-type VRE strain VE 82; type: cell-based, Enterococcus gallinarum; details: Enterococcus gallinarum; VE 82, VanC1; read-out: MIC
Protocol: as §1

CC(=O)NC[C@H]1CN(c2ccc(N3CCOCC3)c(F)c2)C(=O)O1 [Linezolid, reference compound]
MIC [1]: 12.5 µM (≈ 4.22 µg/mL) | IC50 [2]: 216 ± 48 µM | MIC ([3]; Enterococcus faecalis, VRE): 6.25 µM (≈ 2.11 µg/mL) | MIC-fold improvement vs. vancomycin ([3]; VRE 37, ratio of MIC of vancomycin and MIC of analogue): 64 | MIC ([4]; Enterococcus faecalis, VRE): 6.25 µM (≈ 2.11 µg/mL) | MIC-fold improvement vs. vancomycin ([4]; VRE 53, ratio of MIC of vancomycin and MIC of analogue): 64 | MIC ([5]; VSE1, Enterococcus faecalis VSE 1 (vancomycin-sensitive), read-out: MIC): > 3.13 µM | MIC-fold improvement vs. vancomycin ([5]; VSE 1, ratio of MIC of vancomycin and MIC of analogue): <0.5 | IC50 [6]: > 250 µM | MIC-fold improvement vs. vancomycin ([7]; MRSA KS1, ratio of MIC of vancomycin and MIC of analogue): 0.05 | MIC ([7]; Staphylococcus aureus MRSA KS1, read-out: MIC): 12.5 µM (≈ 4.22 µg/mL) | MIC ([8]; Staphylococcus aureus, VISA): 3.13 µM (≈ 1.06 µg/mL) | MIC-fold improvement vs. vancomycin ([8]; VISA/HIP5827, ratio of MIC of vancomycin and MIC of analogue): 2 | MIC [9]: 12.5 µM (≈ 4.22 µg/mL) | MIC-fold improvement vs. vancomycin ([10]; MRSA KS2, ratio of MIC of vancomycin and MIC of analogue): 0.1 | MIC ([10]; Staphylococcus aureus, MRSA): 6.25 µM (≈ 2.11 µg/mL) | MIC ([11]; Staphylococcus aureus VRSA): 6.25 µM (≈ 2.11 µg/mL) | MIC-fold improvement vs. vancomycin ([11]; VRSA, ratio of MIC of vancomycin and MIC of analogue): 16 | MIC [12]: 12.5 µM (≈ 4.22 µg/mL) | IC50 [13]: 157 ± 7 µM | MIC [14]: 12.5 µM (≈ 4.22 µg/mL) | MIC ([15]; Enterococcus faecalis VRE 6 (vancomycin-resistant), read-out: MIC): 12.5 µM (≈ 4.22 µg/mL) | MIC-fold improvement vs. vancomycin ([15]; VRE 6, ratio of MIC of vancomycin and MIC of analogue): 16 | MBC relative to MIC [16]: more than four times higher than the corresponding MIC | MIC ([17]; Enterococcus faecalis, VRE): 6.25 µM (≈ 2.11 µg/mL) | MIC-fold improvement vs. vancomycin ([17]; VRE 29, ratio of MIC of vancomycin and MIC of analogue): 64 | MIC-fold improvement vs. vancomycin ([18]; MRSA KS6, ratio of MIC of vancomycin and MIC of analogue): 0.1 | MIC ([18]; Staphylococcus aureus, MRSA): 6.25 µM (≈ 2.11 µg/mL) | IC50 ([19]; average IC50 used for TI in Table S5, >250 entered as 250, read-out: IC50): 208 µM | IC50 ([19]; average of L1210, CEM and HeLa, read-out: Toxicity (IC50) Average): 208 µM | MIC Range ([20]; 33 clinical VRE isolates): 3.13 to 50 µM | MIC50 ([20]; Enterococcus, median MIC, 33 clinical VRE isolates, read-out: MIC50): 6.25 µM (≈ 2.11 µg/mL) | TI (IC50/MIC50) ([20]; in vitro therapeutic index, VRE): 33 | MIC ([21]; ATCC6538, Staphylococcus aureus VSSA, read-out: MIC): > 3.13 µM | MIC-fold improvement vs. vancomycin ([21]; VSSA, ratio of MIC of vancomycin and MIC of analogue): <0.2 | MIC Range ([22]; 24 clinical MRSA isolates): 6.25 to 25 µM | MIC50 ([22]; Staphylococcus aureus, median MIC, 24 clinical MRSA isolates, read-out: MIC50): 25 µM (≈ 8.43 µg/mL) | TI (IC50/MIC50) ([22]; in vitro therapeutic index, MRSA): 8 | MIC-fold improvement vs. vancomycin ([23]; MRSA KS8 (head; KS89 in title), ratio of MIC of vancomycin and MIC of analogue): 0.1 | MIC ([23]; Staphylococcus aureus, MRSA): 6.25 µM (≈ 2.11 µg/mL) | time-kill curve character [24]: typical bacteriostatic time-kill curve | MIC [25]: 12.5 µM (≈ 4.22 µg/mL) | MIC [26]: 12.5 µM (≈ 4.22 µg/mL)

Reference: paper PMC6001238, “Iterative Chemical Engineering of Vancomycin Leads to Novel Vancomycin Analogs With a High in Vitro Therapeutic Index” (Frontiers in Microbiology, 2018)
